This note sets out measurements from patent US7534447B2, “Synergistic and residual pesticidal compositions containing plant essential oils” (priority 1998, dated 2009).

The test system of series [1] is female rats. The experiment in a line: Example 2: toxicity of tested dose in female rats. To be noted: female rats (8-10 week-old), up to 5 days after treatment. Format: in vivo, rat. From the text:
The Blend-5 is a combination of plant essential oils consisting of thymol, eugenol, trans-anethole, alpha-terpineol, and citronellal.

Series [2] relates to cockroaches. Format: in vivo. On the procedure: (§1) Glass jars were treated with different concentrations of test chemicals in acetone. The acetone was allowed to evaporate and the cockroaches were exposed to the jars. […] This experiment was repeated 2 times.
In series [3] the test system is cockroaches. The format is in vivo. To be noted: 10 days; 30 mg/jar alone. Here is the method:
as §1

In series [4] the test system is cockroaches. Format: in vivo. To be noted: 15 mg/jar alone. On the procedure: as §1
Series [5] relates to cockroaches. Description: Example 12: glass jar test, thymol with conventional insecticides. The format is in vivo. To be noted: 1 hr.; 10 mg/jar alone. Here is the method: as §1
The test system of series [6] is cockroaches. Description: Example 14: glass jar residual test, thymol with conventional insecticides. Format: in vivo. Particulars: 15 mg/jar alone. Here is the method:
as §1

In series [7] the test system is Spodoptera litura. To be noted: in vivo. On the procedure:
There were five replicates with 10 larvae per replicate, and this was repeated two times. Mortality was observed after 24 hours exposure.

Like-named read-outs stand apart in the source and are kept apart here.

Turning to `Cc1ccc(C(C)C)c(O)c1` [Thymol], the “death or sign of toxicity (body weight and appetite)” value in series [1] was “did not induce any death or sign of toxicity”. The “% Mortality at time interval in days after treatment” value (“% Mortality at time interval in days” for short) in series [2] (1 hr., 5 mg/jar alone) came out at 0%; in series [2] (1 hr., 10 mg/jar alone), 10%; in series [2] (3 days, 5 mg/jar alone), 0%; in series [2] (3 days, 10 mg/jar alone) it was 0%; in series [2] (10 days, 5 mg/jar alone), 0%; in series [2] (10 days, 10 mg/jar alone) it was 0%. Besides, the “% Mortality at time interval in days” value in series [2] (10 days, 30 mg/jar alone) came to 0%; in series [3], 0%; in series [4] (1 hr.), 30%; in series [4] (7 days), 0%; in series [5], 0%; in series [6] (1 hr.) it was 10%. For the same molecule, the “% Mortality at time interval in days” value in series [6] (7 days) is 20%; in series [6] (14 days) it was 10%. For the same molecule, the “Mortality (%) 24 hrs.” value in series [7] was found to be 98%.
